Article PMC3722118, “Hellebrin and its aglycone form hellebrigenin display similar in vitro growth inhibitory effects in cancer cells and binding profiles to the alpha subunits of the Na^+/K^+-ATPase” (Molecular Cancer, 2013)
Read-outs that look alike come from different tables or passages of the source.

How the values were obtained:
[1] = tested on: human cancer cells (A549, U373, Hs683, T98G, MCF-7, SKMEL-28, PC-3, HT-29); assay: MTT growth inhibition, mean over the eight human cancer cell lines; assay type: cell-based; conditions: read-out: IC50 (nM) Mean ± SEM
How it was run: (§1)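 Cells were grown in RPMI with 10% heat-inactivated fetal calf serum, 4 mM glutamine and antibiotics. Growth was measured by MTT reduction to formazan read by spectrophotometry, with treated cell optical density compared to untreated controls. Six replicates per condition.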

[2] = biological target: T1, human α1β1 NaK complex (Homo sapiens, UniProt P05023); assay: 3H-ouabain competitive displacement on P. pastoris membranes; assay type: binding; conditions: for Kd: 3H-ouabain displacement, three independent experiments, read-out: Affinity (nM) α-1 (KD ± SEM); for fold higher affinity for α1 than for the α2 and α3 subunits: from Table 2 KD values
T1 construct: made in house; host or cells: Pichia pastoris strain SMD1165 (membranes)
Method: (§2) K0.5 was calculated using a one site inhibition model: B/BCG=0 = K0.5/([CG] + K0.5). […] Binding of each cardiac glycoside was estimated in 3 separate experiments.
(§3) Average KD or Ki values ± SEM for each isoform were calculated. Statistical significance was calculated by the unpaired Students t-test. P values <0.05 were considered significant.

[3] = biological target: T2, human α2β1 NaK complex (Homo sapiens, UniProt P50993); assay: as above; assay type: binding; conditions: for Kd: 3H-ouabain displacement, three independent experiments, read-out: Affinity (nM) α-2 (KD ± SEM); for Selectivity α-1 / α-2: ratio of KD α-1 to KD α-2
T2 construct: made in house; host or cells: Pichia pastoris strain SMD1165 (membranes)
Method: as §2, §3

[4] = biological target: T3, human α3β1 NaK complex (Homo sapiens, UniProt P13637); assay: as above; assay type: binding; conditions: for Kd: 3H-ouabain displacement, three independent experiments, read-out: Affinity (nM) α-3 (KD ± SEM); for Selectivity α-1 / α-3: ratio of KD α-1 to KD α-3
T3 construct: made in house; host or cells: Pichia pastoris strain SMD1165 (membranes)
Method: as §2, §3

[5] = tested on: T98G glioma cells; assay: MTT colorimetric in vitro growth inhibition assay; assay type: cell-based, human; conditions: read-out: IC50 (nM) T98G
How it was run: as §1

[6] = tested on: Hs683 glioma cells; assay: MTT colorimetric in vitro growth inhibition assay; assay type: cell-based, human; conditions: read-out: IC50 (nM) Hs683
How it was run: as §1

[7] = tested on: A549 NSCLC cells; assay: MTT colorimetric in vitro growth inhibition assay; assay type: cell-based, human; conditions: read-out: IC50 (nM) A549
How it was run: as §1

[8] = tested on: PC-3 prostate cancer cells; assay: MTT colorimetric in vitro growth inhibition assay; assay type: cell-based, human; conditions: read-out: IC50 (nM) PC-3
How it was run: as §1

[9] = tested on: MCF-7 breast cancer cells; assay: MTT colorimetric in vitro growth inhibition assay; assay type: cell-based, human; conditions: read-out: IC50 (nM) MCF-7
How it was run: as §1

[10] = tested on: U373 glioma cells; assay: MTT colorimetric in vitro growth inhibition assay; assay type: cell-based, human; conditions: read-out: IC50 (nM) U373
How it was run: as §1

[11] = tested on: HT-29 colon cancer cells; assay: MTT colorimetric in vitro growth inhibition assay; assay type: cell-based, human; conditions: read-out: IC50 (nM) HT-29
How it was run: as §1

[12] = tested on: SKMEL-28 melanoma cells; assay: MTT colorimetric in vitro growth inhibition assay; assay type: cell-based, human; conditions: read-out: IC50 (nM) SKMEL-28
How it was run: as §1

[13] = biological target: T4, purified human α1β1 Na+/K+-ATPase (Homo sapiens, UniProt P05023); assay: Inhibition of NaK activity of purified detergent-soluble complex (Pi release); assay type: biochemical; conditions: for selectivity in inhibition of NaK activity of all of the purified complexes: comparison of α1β1, α2β1, α3β1 purified complexes
T4 construct: made in house; host or cells: Pichia pastoris strain SMD1165; detergent-soluble complex purified
Method: The inhibition of NaK activity of the purified detergent-soluble α1β1, α2β1, and α3β1 complexes by cardiotonic steroids and an analysis of the inhibition data (Ki values) were also performed as previously described. The inhibitors were added to the recombinant enzyme (0.08–0.2 μg of protein) in 400 μl of reaction medium containing 130 mM NaCl, 5 mM KCl, 3 mM MgCl2, 25 mM histidine, pH 7.4, 1 mM EGTA, 0.01 mg/ml SOPS, 0.001 mg/ml cholesterol, and 0.005 mg/ml C12 E8 in 48-well plates. The reaction (37°C for 1 h) was started by the addition of 1mM ATP. Pi release was measured with a malachite green dye to detect the phosphor-molybdate (Pi Color Lock, Innova Biosciences). The percent inhibition V /V0 was calculated for each cardiac glycoside concentration, and Ki values were obtained by fitting the data to the function V /V0 = Ki /([CG] + Ki ) (using Kaleidagraph). V0 and V represent the control rate and rate of NaK-ATPase activity at particular concentrations of cardiac glycosides, [CG], respectively.
as §3

[14] = three days of culture, * three independent experiments, ** one experiment, six replicates

`C[C@]12CC[C@H]3[C@@H](CC[C@]4(O)C[C@@H](O)CC[C@]34C=O)[C@@]1(O)CC[C@@H]2c1ccc(=O)oc1` [Hellebrigenin] was tested, and the IC50 ([1]; mean over eight human cancer cell lines, three days of culture) was 16 ± 5 nM, the Kd [2] was 103 ± 19 nM and the “fold higher affinity for α1 than for the α2 and α3 subunits” value [2] was ~ 2 fold. For the same compound, the Kd [3] was 198 ± 51 nM, the “Selectivity α-1 / α-2” value [3] was 0.5 and the Kd [4] was 191 ± 23 nM. The “Selectivity α-1 / α-3” value [4] was 0.5, the IC50 [5, 14] was 9 ± 1 nM and the IC50 [6, 14] was 6 ± 1 nM. It also gave an IC50 [7, 14] of 3 ± 1 nM, an IC50 [8, 14] of 18 ± 1 nM and an IC50 [9, 14] of 42 ± 2 nM. For the same compound, the IC50 [10, 14] was 9 ± 1 nM, the IC50 [11, 14] was 9 ± 1 nM and the IC50 [12, 14] was 28 ± 9 nM. The Ki ([13]; 37°C, 1 h, 1 mM ATP, read-out: Ki for inhibition of NaK activity of purified human α1β1) was 46 ± 6 nM and the “selectivity in inhibition of NaK activity of all of the purified complexes” value [13] was “no selectivity”.

In the case of `C[C@@H]1O[C@@H](O[C@H]2CC[C@]3(C=O)[C@H]4CC[C@]5(C)[C@@H](c6ccc(=O)oc6)CC[C@]5(O)[C@@H]4CC[C@]3(O)C2)[C@H](O)[C@H](O)[C@H]1O[C@@H]1O[C@H](CO)[C@@H](O)[C@H](O)[C@H]1O` [Hellebrin], the IC50 ([1]; Homo sapiens, 72 h) is reported as 28 ± 7 nM, the Kd [2] is reported as 86 ± 18 nM and the “fold higher affinity for α1 than for the α2 and α3 subunits” value [2] is reported as ~ 2 fold. The Kd [3] was 218 ± 52 nM, the “Selectivity α-1 / α-2” value [3] was 0.4 and the Kd [4] was 175 ± 20 nM. The “Selectivity α-1 / α-3” value [4] was 0.5, the IC50 ([5]; Homo sapiens, T98G, 72 h) was 30 ± 1 nM and the IC50 ([6]; Homo sapiens, Hs 683, 72 h) was 7 ± 1 nM. For the same compound, the IC50 ([7]; Homo sapiens, A549, 72 h) was 6 ± 1 nM, the IC50 ([8]; Homo sapiens, 72 h) was 11 ± 1 nM and the IC50 ([9]; Homo sapiens, MCF7, 72 h) was 58 ± 12 nM. For the same compound, the IC50 ([10]; Homo sapiens, U373 MG, 72 h) was 41 ± 2 nM, the IC50 ([11]; Homo sapiens, HT-29, 72 h) was 27 ± 4 nM and the IC50 ([12]; Homo sapiens, SK-MEL-28, 72 h) was 40 ± 5 nM. The Ki [13] was 103 ± 7 nM and the “selectivity in inhibition of NaK activity of all of the purified complexes” value [13] was “no selectivity”.
